Measured values as given in US6706750B1, “Indole derivatives process for their preparation, pharmaceutical compositions containing them and their medicinal application” (priority 1999, dated 2004).
Counter-ions that a name gives are not always drawn. Like-named read-outs stand apart in the source and are kept apart here.

How the values were obtained:
h5-HT2A receptors = target: T1, h5-HT2A receptors (Homo sapiens, UniProt P28223); test: Functional activity, FLIPR calcium assay in CHO cells expressing h5-HT2A; format: cell-based; details: for Emax: CHO, read-out: h5-HT2A Relative Efficacy; for EC50: FLIPR, CHO cells
T1 construct: expressed in transfected cells; host or cells: CHO cells
T1 sequence (P28223 whole entry): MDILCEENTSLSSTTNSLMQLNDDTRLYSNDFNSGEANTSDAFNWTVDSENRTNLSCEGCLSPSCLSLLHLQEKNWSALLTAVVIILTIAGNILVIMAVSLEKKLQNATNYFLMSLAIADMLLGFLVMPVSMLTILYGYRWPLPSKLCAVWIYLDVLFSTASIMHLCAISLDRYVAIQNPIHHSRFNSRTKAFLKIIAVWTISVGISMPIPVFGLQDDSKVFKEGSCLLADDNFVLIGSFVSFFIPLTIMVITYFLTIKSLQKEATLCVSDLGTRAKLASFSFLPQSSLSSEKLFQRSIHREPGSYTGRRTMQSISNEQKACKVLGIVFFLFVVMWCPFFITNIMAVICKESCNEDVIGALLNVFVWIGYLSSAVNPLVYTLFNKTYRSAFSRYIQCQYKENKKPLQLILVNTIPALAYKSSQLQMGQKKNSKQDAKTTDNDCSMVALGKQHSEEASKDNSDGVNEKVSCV
Procedure: (§1) The functional activity of compounds of formula (I) was assayed using a Fluorimetric Imaging Plate reader (FLIPR) in the following manner.
(§2) CHO cells expressing either the h5-HT2C or h5-HT2A receptors were counted and plated into standard 96 well microtitre plates before the day of testing to give a confluent monolayer. The following day the cells were dye loaded with the calcium sensitive dye Fluo 3-AM by incubation with serum free culture maintenance media containing pluronic acid and Fluo 3-AM dissolved in DMSO at 37° C. in a CO2 incubator at 95% humidity for approximately 90 minutes. Unincorporated dye was removed by washing with Hanks balanced salt solution containing 20 mM HEPES and 2.5 mM probenecid (the assay buffer) using an automated cell washer to leave a total volume of 100 μL/well.
(§3) The drug (dissolved in 50 μL of assay buffer) was added at a rate of 70 μL/sec to each well of the FLIPR 96 well plate during fluorescence measurements. The measurements are taken at 1 sec intervals and the maximum fluorescent signal was measured (approx 10-15 secs after drug addition) and compared with the response produced by 10 μM 5-HT (defined as 100%) to which it is expressed as a percentage response (relative efficacy). Dose response curves were constructed using Graphpad Prism (Graph Software Inc.).

h5-HT2C = target: T2, h5-HT2C (Homo sapiens, UniProt P28335); test: Functional activity, FLIPR calcium assay in CHO cells expressing h5-HT2C; format: cell-based; details: for Emax: CHO, read-out: h5-HT2C Relative Efficacy; for EC50: FLIPR, CHO cells
T2 construct: expressed in transfected cells; host or cells: CHO cells
T2 sequence (P28335 33-458): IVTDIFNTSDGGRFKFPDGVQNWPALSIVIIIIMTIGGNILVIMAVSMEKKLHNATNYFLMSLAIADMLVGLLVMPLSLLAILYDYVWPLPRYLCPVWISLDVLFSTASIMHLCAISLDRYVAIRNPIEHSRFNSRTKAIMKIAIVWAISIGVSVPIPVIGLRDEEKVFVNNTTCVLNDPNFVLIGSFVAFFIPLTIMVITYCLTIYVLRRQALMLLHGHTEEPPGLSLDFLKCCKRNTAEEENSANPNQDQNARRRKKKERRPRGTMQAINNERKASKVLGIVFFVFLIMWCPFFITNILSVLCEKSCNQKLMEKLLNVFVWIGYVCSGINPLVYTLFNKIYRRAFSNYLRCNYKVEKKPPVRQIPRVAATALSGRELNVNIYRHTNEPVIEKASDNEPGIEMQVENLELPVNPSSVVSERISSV
Procedure: as §1, §2, §3

5-HT2C receptor = target: T3, 5-HT2C receptor (Homo sapiens, UniProt P28335); test: Radioligand binding to the 5-HT2C receptor ([3H]-5-HT, CHO cell line)
T3 construct: expressed in transfected cells; host or cells: CHO cell line
T3 sequence (P28335 33-458): T2 sequence (P28335 33-458)
Procedure: (§4) 1. Binding to Serotonin Receptors
(§5) The binding of compounds of formula (I) to serotonin receptors was determined in vitro by standard methods. The preparations were investigated in accordance with the assays given hereinafter.
Method (a): For the binding to the 5-HT2C receptor the 5-HT2C receptors were radiolabelled with [^3H]-5-HT. The affinity of the compounds for 5-HT2C receptors in a CHO cell line was determined according to the procedure of D. Hoyer, G. Engel and H.O. Kalkman, European J. Pharmacol., 1985, 118, 13-23.

human 5-HT2B receptors = target: T4, human 5-HT2B receptors (Homo sapiens, UniProt P41595); test: Radioligand binding to the 5-HT2B receptor ([3H]-5-HT, CHO cell line)
T4 construct: expressed in transfected cells; host or cells: CHO cell line
T4 sequence (P41595 whole entry): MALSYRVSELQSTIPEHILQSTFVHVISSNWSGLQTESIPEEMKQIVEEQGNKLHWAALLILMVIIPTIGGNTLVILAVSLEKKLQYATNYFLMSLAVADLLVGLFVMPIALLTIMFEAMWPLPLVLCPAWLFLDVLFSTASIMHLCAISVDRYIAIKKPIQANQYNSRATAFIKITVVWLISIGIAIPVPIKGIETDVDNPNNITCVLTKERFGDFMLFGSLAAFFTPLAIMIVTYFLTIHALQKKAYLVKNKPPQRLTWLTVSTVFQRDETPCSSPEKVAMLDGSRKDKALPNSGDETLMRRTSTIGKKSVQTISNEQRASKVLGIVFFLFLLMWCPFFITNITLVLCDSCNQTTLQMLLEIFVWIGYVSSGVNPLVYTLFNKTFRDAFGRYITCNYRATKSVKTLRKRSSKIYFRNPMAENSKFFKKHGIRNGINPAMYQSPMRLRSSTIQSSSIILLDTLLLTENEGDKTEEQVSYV
Procedure: as §4, §5
Method (b): For the binding to the 5-HT2B receptor the 5-HT2B receptors were radiolabelled with [^3H]-5-HT. The affinity of the compounds for human 5-HT2B receptors in a CHO cell line was determined according to the procedure of K. Schmuck, C. Ullmer, P. Engels and H. Lubbert, FEBS Lett., 1994, 342, 85-90.

5-HT2A receptor = target: T5, 5-HT2A receptor (Homo sapiens, UniProt P28223); test: Radioligand binding to the 5-HT2A receptor ([125I]-DOI, CHO cell line)
T5 construct: expressed in transfected cells; host or cells: CHO cell line
T5 sequence (P28223 whole entry): as the sequence (P28223 whole entry) above
Procedure: as §4, §5
Method (c): For the binding to the 5-HT2A receptor the 5-HT2A receptors were radiolabelled with [^125I]-DOI. The affinity of the compounds for 5-HT2A receptors in a CHO cell line was determined according to the procedure of D. J. McKenna and S. J. Peroutka, J. Neurosci., 1989, 9/10, 3482-90.

[1] = cited from earlier work
[2] = cited from earlier work; remark: listed apart in the source
[3] = maximum fluorescent signal compared with 10 μM 5-HT (defined as 100%)
[4] = [3H]-5-HT, CHO cell line, read-out: Ki(2C)
[5] = [3H]-5-HT, human receptor, CHO cell line, read-out: Ki(2B)
[6] = [125I]-DOI, CHO cell line, read-out: Ki(2A)

| Compound | melting point | Emax (h5-HT2A receptors; [3]) [%] | Emax (h5-HT2C; [3]) [%] | EC50 (h5-HT2C) [nM] | further results |
| --- | --- | --- | --- | --- | --- |
| C[C@H](N)Cn1c2c(c3cc(F)ccc31)CCC2 (as salt: fumarate) (hydrate or solvate) [Example 2, (S)-1-(7-fluoro-1,2,3,4-tetrahydrocyclopent[b]indol-4-yl)-2-propylamine] | 161 to 162 °C | – | – | – | – |
| C[C@H](N)Cn1c2c(c3c(Cl)cccc31)CCC2 (as salt: fumarate) [Example 4, (S)-1-(8-chloro-1,2,3,4-tetrahydrocyclopent[b]indol-4-yl)-2-propylamine] | 172 to 173 °C (dec.) | – | – | – | – |
| COc1ccc2c3c(n(C[C@H](C)N)c2c1)CCC3 (as salt: fumarate) [Example 11, (S)-1-(6-methoxy-1,2,3,4-tetrahydrocyclopent[b]indol-4-yl)-2-propylamine] | 182 °C | – | – | – | – |
| COc1cc2c(cc1F)c1c(n2C[C@H](C)N)CCC1 (as salt: fumarate) [Example 37, (S)-1-(7-fluoro-6-methoxy-1,2,3,4-tetrahydrocyclopent[b]indol-4-yl)-2-propylamine] | 213 °C (dec.) | – | – | – | – |
| C[C@H](N)Cn1c2c(c3ccccc31)CCC2 (as salt: hydrochloride) (hydrate or solvate) [Example 14, (S)-1-(1,2,3,4-tetrahydrocyclopent[b]indol-4-yl)-2-propylamine] | 233 °C | – | – | – | – |
| C[C@H](N)Cn1c2c(c3c(Cl)c(F)ccc31)CCC2 (as salt: hydrochloride) (hydrate or solvate) [Example 18, (S)-1-(8-chloro-7-fluoro-1,2,3,4-tetrahydrocyclopent[b]indol-4-yl)-2-propylamine] | 252 to 253 °C | – | – | – | – |
| C[C@H](N)Cn1c2c(c3c(Cl)cc(Cl)cc31)CCC2 (as salt: hydrochloride) (hydrate or solvate) [Example 26] | 258 °C | – | – | – | – |
| C[C@@H](N)Cn1c2c(c3ccccc31)CCC2 (as salt: hydrochloride) (hydrate or solvate) [Example 30, (R)-1-(1,2,3,4-tetrahydrocyclopent[b]indol-4-yl)-2-propylamine] | 225 to 231 °C (dec.) | – | – | – | – |
| C[C@H](N)Cn1c2c(c3ccc(F)cc31)CCC2 (as salt: hydrochloride) (hydrate or solvate) [Example 31] | 215 °C | – | – | – | – |
| CCSc1ccc2c3c(n(C[C@H](C)N)c2c1)CCC3 (as salt: hydrochloride) [Example 27] | 115 to 119 °C | – | – | – | – |
| C[C@H](N)Cn1c2c(c3c(F)c(F)ccc31)CCC2 [Example 1, (S)-1-(7,8-Difluoro-1,2,3,4-tetrahydrocyclopent[b]indol-4-yl)-2-propylamine fumarate] | – | 0 | 77 | 272 | Ki (5-HT2C receptor): 65 nM; Ki (human 5-HT2B receptors): 40 nM; Ki (5-HT2A receptor): 122 nM |
| C[C@H](N)Cn1c2c(c3cc(F)ccc31)CCC2 [Example 2, (S)-1-(7-fluoro-1,2,3,4-tetrahydrocyclopent[b]indol-4-yl)-2-propylamine] | – | 0 | 85 | 347 | – |
| C[C@H](N)Cn1c2c(c3c(Cl)cccc31)CCC2 [Example 4, (S)-1-(8-chloro-1,2,3,4-tetrahydrocyclopent[b]indol-4-yl)-2-propylamine] | – | 60 | 65 | 179 | – |
| COc1ccc2c3c(n(C[C@H](C)N)c2c1)CCC3 [Example 11, (S)-1-(6-methoxy-1,2,3,4-tetrahydrocyclopent[b]indol-4-yl)-2-propylamine] | – | 25 | 85 | 89 | EC50 (h5-HT2A receptors): 1690 nM; Ki (5-HT2C receptor): 63 nM; Ki (human 5-HT2B receptors): 210 nM; Ki (5-HT2A receptor): 314 nM |
| C[C@H](N)Cn1c2c(c3ccccc31)CCC2 [Example 14, (S)-1-(1,2,3,4-tetrahydrocyclopent[b]indol-4-yl)-2-propylamine] | – | 48 | 80 | 252 | EC50 (h5-HT2A receptors): 6250 nM; Ki (5-HT2C receptor): 64 nM; Ki (human 5-HT2B receptors): 180 nM; Ki (5-HT2A receptor): 375 nM |
| C[C@H](N)Cn1c2c(c3cc(F)c(Cl)cc31)CCC2 [Example 16] | – | 0 | 86 | 307 | – |
| C[C@H](N)Cn1c2c(c3c(Cl)c(F)ccc31)CCC2 [Example 18, (S)-1-(8-chloro-7-fluoro-1,2,3,4-tetrahydrocyclopent[b]indol-4-yl)-2-propylamine] | – | 63 | 75 | 36 | EC50 (h5-HT2A receptors): 2100 nM |
| C[C@H](N)Cn1c2c(c3c(Cl)cc(Cl)cc31)CCC2 [Example 26] | – | – | – | – | Ki (5-HT2C receptor; [4]): 106 nM; Ki (human 5-HT2B receptors; [5]): 127 nM; Ki (5-HT2A receptor; [6]): 144 nM |
| CCSc1ccc2c3c(n(C[C@H](C)N)c2c1)CCC3 [Example 27] | – | – | – | – | Ki (5-HT2C receptor; [4]): 141 nM; Ki (human 5-HT2B receptors; [5]): 496 nM; Ki (5-HT2A receptor; [6]): 545 nM |
| C[C@@H](N)Cn1c2c(c3ccccc31)CCC2 [Example 30, (R)-1-(1,2,3,4-tetrahydrocyclopent[b]indol-4-yl)-2-propylamine] | – | 43 | 72 | 90 | EC50 (h5-HT2A receptors): 361 nM; Ki (5-HT2C receptor): 19 nM; Ki (human 5-HT2B receptors): 31 nM; Ki (5-HT2A receptor): 48 nM |
| C[C@H](N)Cn1c2c(c3ccc(F)cc31)CCC2 [Example 31] | – | – | – | – | Ki (5-HT2C receptor): 65 nM; Ki (human 5-HT2B receptors; [5]): 161 nM; Ki (5-HT2A receptor; [6]): 550 nM |
| CC(N)Cn1c2c(c3cc(F)c(F)cc31)CCC2 (stereo not shown) [Example 33] | – | 22 | 81 | 316 | Ki (5-HT2C receptor): 63 nM; Ki (human 5-HT2B receptors): 152 nM; Ki (5-HT2A receptor): 233 nM |
| COc1cc2c(cc1F)c1c(n2C[C@H](C)N)CCC1 [Example 37, (S)-1-(7-fluoro-6-methoxy-1,2,3,4-tetrahydrocyclopent[b]indol-4-yl)-2-propylamine] | – | 28 | 84 | 127 | EC50 (h5-HT2A receptors): 2990 nM; Ki (5-HT2C receptor): 41 nM; Ki (human 5-HT2B receptors): 65 nM; Ki (5-HT2A receptor): 86 nM |
| COc1c(F)ccc2c1c1c(n2C[C@H](C)N)CCC1 [Example 42, (S)-1-(7-fluoro-8-methoxy-1,2,3,4-tetrahydrocyclopent[b]indol-4yl)-2-propylamine] | – | 51 | 74 | 87 | EC50 (h5-HT2A receptors): 805 nM |
| C[C@@H](N)Cn1c2c(c3cccc(Cl)c31)CCC2 [Example 43] | 299 to 302 °C | – | – | – | Ki (5-HT2C receptor): 62 nM; Ki (human 5-HT2B receptors; [5]): 162 nM; Ki (5-HT2A receptor; [6]): 167 nM |
| FC(F)(F)c1cccc(N2CCNCC2)c1 [TFWPP, trifluoromethylphenylpiperazine] | – | – | – | – | food intake in rats [1]: reduce food intake |
| Clc1cccc(N2CCNCC2)c1 [mCPP, m-chlorophenylpiperazine] | – | – | – | – | appetite and body weight of obese subjects ([2]; obese male and female subjects, subchronic treatment for 14 days): decreased the appetite and body weight; food intake in female volunteers ([2]; single injection, female volunteers): decreased food intake; food intake in rats [1]: reduce food intake |
| (R)-1-(7-Fluoro-1,2,3,4-tetrahydro-6-methoxy-cyclopent[b]indol-4-yl)-2-propylamine, hemifumarate [Example 36] | – | – | – | 189 | EC50 (h5-HT2A receptors): 1340 nM; h5-HT2A Relative Efficacy (h5-HT2A receptors; [3]): 25%; h5-HT2C Relative Efficacy (h5-HT2C; [3]): 64% |
